Data published in patent publication US11485726B2, “Compound for inhibiting and degrading tyrosine protein kinase ALK” (SHANGHAI MEIZER PHARMACEUTICALS CO., LTD., priority 2017, dated 2022).

Tests used:
ALK kinase [1] = target: T1, ALK kinase (Homo sapiens, UniProt Q9UM73); assay: ALK inhibition activity by Caliper assay; assay type: biochemical; conditions: compound 100 nM
Experimental: Example 5 Testing the ALK Inhibition Activity of Compound by Caliper Assay
The experimental steps were as follows:
Preparation of 1×kinase reaction buffer (50 mM HEPES, PH 7.5; 0.0015% Brij-35) and kinase reaction termination solution (100 mM HEPES, PH 7.5; 0.0015% Brij-35; 0.2% Coating Reagent; 50 mM EDTA);
Preparation of experimental samples: 100 μl of 5 μM sample solution (dissolved in 100% DMSO) was added to a 96-well plate to obtain a 50×sample solution. As controls, two wells containing only 100 μL of 100% DMSO were set on the same plate. One was served as a control without samples and the other was served as a control without enzymes. 10 μL of sample and 90 μL, of 1×kinase reaction buffer were added to a 96-well plate as a transfer plate. The transfer plate was shaken for 10 minutes.
Preparation of the test plate: taking 5 μL of each of the prepared samples from the 96-well transfer plate into a 384-well plate.
Kinase reaction: to 5 μL of 5×compound solution (dissolved in DMSO, diluted 10 times with water) was added 10 μL of 2.5×ALK kinase solution (kinase was diluted with 1×kinase reaction buffer), which was incubated at room temperature for 10 min, and then 10 μL of 2.5×substrate peptide solution (FAM-labeled peptide and ATP were diluted with 1×kinase reaction buffer) was added.
Termination of the kinase reaction: 25 μL of kinase reaction termination solution was added after being reacted at 28° C. for a period of time.
The fluorescence (F) was tested on a Caliper and data was collected.
The inhibition rate of kinase activity was calculated: the percent inhibition rate of kinase activity=(FDMSO control−Fsample)/(FDMSO control−Fnegative control)×100, with DMSO as the solution control, and no kinase as the negative control.
Target sequence in this assay (Q9UM73 19-1620): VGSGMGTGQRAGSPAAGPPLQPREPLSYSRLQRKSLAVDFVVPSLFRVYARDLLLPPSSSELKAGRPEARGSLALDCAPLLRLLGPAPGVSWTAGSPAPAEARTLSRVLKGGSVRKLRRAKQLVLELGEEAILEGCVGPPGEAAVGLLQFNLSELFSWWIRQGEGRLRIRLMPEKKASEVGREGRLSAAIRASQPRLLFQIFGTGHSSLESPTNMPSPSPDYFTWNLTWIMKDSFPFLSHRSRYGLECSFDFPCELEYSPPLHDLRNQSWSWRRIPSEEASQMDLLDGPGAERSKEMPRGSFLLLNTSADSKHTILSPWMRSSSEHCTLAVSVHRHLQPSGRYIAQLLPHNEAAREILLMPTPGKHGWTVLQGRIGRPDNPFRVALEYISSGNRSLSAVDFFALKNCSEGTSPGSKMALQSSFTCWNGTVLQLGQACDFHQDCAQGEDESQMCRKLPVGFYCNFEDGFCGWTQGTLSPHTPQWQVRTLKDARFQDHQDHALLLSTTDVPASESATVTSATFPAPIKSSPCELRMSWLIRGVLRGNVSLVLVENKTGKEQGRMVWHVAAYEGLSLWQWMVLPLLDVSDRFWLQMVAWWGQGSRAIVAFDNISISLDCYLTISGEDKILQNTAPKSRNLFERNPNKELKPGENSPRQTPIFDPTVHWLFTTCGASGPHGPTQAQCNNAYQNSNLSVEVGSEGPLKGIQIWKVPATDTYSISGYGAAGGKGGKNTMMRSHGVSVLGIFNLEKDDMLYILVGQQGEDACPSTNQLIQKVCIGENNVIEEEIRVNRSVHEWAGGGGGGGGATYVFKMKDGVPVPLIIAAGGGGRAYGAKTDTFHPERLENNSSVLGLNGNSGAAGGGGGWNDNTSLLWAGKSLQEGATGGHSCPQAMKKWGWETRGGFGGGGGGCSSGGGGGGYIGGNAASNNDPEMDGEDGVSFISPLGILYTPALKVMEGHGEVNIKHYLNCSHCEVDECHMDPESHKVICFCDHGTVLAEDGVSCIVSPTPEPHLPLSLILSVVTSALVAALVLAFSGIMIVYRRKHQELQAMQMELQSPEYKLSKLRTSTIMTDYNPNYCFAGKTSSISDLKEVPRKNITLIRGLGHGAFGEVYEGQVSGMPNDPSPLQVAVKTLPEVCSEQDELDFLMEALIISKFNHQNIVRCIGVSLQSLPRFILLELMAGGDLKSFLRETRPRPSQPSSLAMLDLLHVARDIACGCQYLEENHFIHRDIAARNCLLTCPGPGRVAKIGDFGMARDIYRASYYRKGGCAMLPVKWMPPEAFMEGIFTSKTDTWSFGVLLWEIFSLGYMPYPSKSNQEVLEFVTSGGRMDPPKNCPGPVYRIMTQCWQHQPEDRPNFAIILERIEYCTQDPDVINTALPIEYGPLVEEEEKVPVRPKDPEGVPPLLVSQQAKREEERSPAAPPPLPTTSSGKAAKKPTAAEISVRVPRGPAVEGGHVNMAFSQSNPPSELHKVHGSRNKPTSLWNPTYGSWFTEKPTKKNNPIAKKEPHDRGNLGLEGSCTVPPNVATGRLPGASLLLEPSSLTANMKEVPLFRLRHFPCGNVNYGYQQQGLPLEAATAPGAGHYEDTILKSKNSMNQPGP

SU-DHL-1 cells = assay: Inhibition of proliferation of SU-DHL-1 cells by CTG assay; assay type: cell-based; conditions: Homo sapiens, compound 100 μM, 72 hours
Experimental: Example 7 Testing the Inhibitory Effect of Formula Compound on the Proliferation of SU-DHL-1 Cells by CTG Assay
The inhibitory effect of the compound on the proliferation of SU-DHL-1 cells ([…]) was determined by the […] method in vitro. The Cells were cultured and the compound was prepared referring to the method of […], and the culture time after administration was 72 hours. Subsequently, an appropriate amount of CTG reagent was added, the luminescence value was measured, and the inhibition rate was calculated.

ALK kinase [2] = target: T1, ALK kinase; assay: ALK protein degradation activity by Western blot in H2228 cells; assay type: cell-based; design: H2228 cell lines (human non-small cell line lung cancer cells, available from ATCC); host or cells: H2228 (human non-small cell lung cancer cells); the other entry of the earlier key: EML4 (Q9HC35, Echinoderm microtubule-associated protein-like 4); conditions: NCI-H2228, compound 1 μM, treatment for 24 hours, degradation rate by Western blot
Target sequence in this assay (Q9UM73 with tags, fused parts or gaps): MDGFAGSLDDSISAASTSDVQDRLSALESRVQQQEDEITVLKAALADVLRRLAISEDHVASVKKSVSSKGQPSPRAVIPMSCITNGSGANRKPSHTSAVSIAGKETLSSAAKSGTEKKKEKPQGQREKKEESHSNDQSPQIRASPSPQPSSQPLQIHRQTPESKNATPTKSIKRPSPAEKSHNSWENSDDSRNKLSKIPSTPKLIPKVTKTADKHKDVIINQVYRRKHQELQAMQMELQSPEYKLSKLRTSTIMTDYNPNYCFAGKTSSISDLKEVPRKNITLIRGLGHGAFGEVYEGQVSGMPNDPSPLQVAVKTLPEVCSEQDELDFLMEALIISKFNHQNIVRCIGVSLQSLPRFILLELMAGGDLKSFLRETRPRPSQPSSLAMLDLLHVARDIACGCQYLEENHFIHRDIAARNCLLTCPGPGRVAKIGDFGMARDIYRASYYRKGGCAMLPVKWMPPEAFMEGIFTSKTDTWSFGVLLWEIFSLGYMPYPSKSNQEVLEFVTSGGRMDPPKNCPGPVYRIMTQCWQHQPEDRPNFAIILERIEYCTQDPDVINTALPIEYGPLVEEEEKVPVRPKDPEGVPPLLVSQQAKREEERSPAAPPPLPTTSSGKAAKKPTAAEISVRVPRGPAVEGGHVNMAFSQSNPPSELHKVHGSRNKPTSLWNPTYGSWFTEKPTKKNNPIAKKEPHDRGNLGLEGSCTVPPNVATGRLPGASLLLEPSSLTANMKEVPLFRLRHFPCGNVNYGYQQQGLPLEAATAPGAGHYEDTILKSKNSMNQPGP

| Structure (SMILES) | inhibition at 0.1 µM (ALK kinase [1]) [%] | inhibition at 100 µM (SU-DHL-1 cells) [%] | inhibition at 1 µM (ALK kinase [2]) [%] |
| --- | --- | --- | --- |
| Cc1cc(Nc2ncc(Cl)c(Nc3ccccc3S(=O)(=O)C(C)C)n2)c(OC(C)C)cc1C1CCN(CCCCCC(=O)Nc2cccc3c2C(=O)N(C2CCC(=O)NC2=O)C3=O)CC1 (centres unmarked) [Compound 3] | 98 | 72 | > 90 |
| Cc1cc(Nc2ncc(Cl)c(Nc3ccccc3S(=O)(=O)C(C)C)n2)c(OC(C)C)cc1C1CCN(CCOCCOCCOc2cccc3c2C(=O)N(C2CCC(=O)NC2=O)C3=O)CC1 (centres unmarked) [Compound 7] | 97 | 98 | > 90 |
| Cc1cc(Nc2ncc(Cl)c(Nc3ccccc3S(=O)(=O)C(C)C)n2)c(OC(C)C)cc1C1CCN(C(=O)COCCOCCNc2cccc3c2C(=O)N(C2CCC(=O)NC2=O)C3=O)CC1 (centres unmarked) [Compound 10] | 99 | – | > 90 |
| Cc1cc(Nc2ncc(Cl)c(Nc3ccccc3S(=O)(=O)C(C)C)n2)c(OC(C)C)cc1C1CCN(S(=O)(=O)CCCCCOc2cccc3c2C(=O)N(C2CCC(=O)NC2=O)C3=O)CC1 (centres unmarked) [Compound 13] | 69 | – | > 90 |
| Cc1cc(Nc2ncc(Cl)c(Nc3ccccc3S(=O)(=O)C(C)C)n2)c(OC(C)C)cc1C1CCN(CCOCCOCCOCCNc2cccc3c2C(=O)N(C2CCC(=O)NC2=O)C3=O)CC1 (centres unmarked) [Compound 14] | 89 | 99 | > 90 |
| Cc1cc(Nc2ncc(Cl)c(Nc3ccccc3S(=O)(=O)C(C)C)n2)c(OC(C)C)cc1C1CCN(CCOCCOCCOCCOc2cccc3c2C(=O)N(C2CCC(=O)NC2=O)C3=O)CC1 (centres unmarked) [Compound 15] | 95 | 100 | > 90 |
| Cc1cc(Nc2ncc(Cl)c(Nc3ccccc3S(=O)(=O)C(C)C)n2)c(OC(C)C)cc1C1CCN(CCCCC(=O)Nc2cccc3c2C(=O)N(C2CCC(=O)NC2=O)C3=O)CC1 (centres unmarked) [Compound 16] | – | – | > 90 |
| Cc1cc(Nc2ncc(Cl)c(Nc3ccccc3S(=O)(=O)C(C)C)n2)c(OC(C)C)cc1C1CCN(CCCC(=O)Nc2cccc3c2C(=O)N(C2CCC(=O)NC2=O)C3=O)CC1 (centres unmarked) [Compound 17] | – | – | > 90 |
| Cc1cc(Nc2ncc(Cl)c(Nc3ccccc3S(=O)(=O)C(C)C)n2)c(OC(C)C)cc1C1CCN(CCC(=O)Nc2cccc3c2C(=O)N(C2CCC(=O)NC2=O)C3=O)CC1 (centres unmarked) [Compound 18] | – | – | > 90 |
| Cc1cc(Nc2ncc(Cl)c(Nc3ccccc3S(=O)(=O)C(C)C)n2)c(OC(C)C)cc1C1CCN(CCOCCOCCC(=O)Nc2cccc3c2C(=O)N(C2CCC(=O)NC2=O)C3=O)CC1 (centres unmarked) [Compound 19] | – | – | > 90 |
| Cc1cc(Nc2ncc(Cl)c(Nc3ccccc3S(=O)(=O)C(C)C)n2)c(OC(C)C)cc1C1CCN(CCOCCOCCOCCC(=O)Nc2cccc3c2C(=O)N(C2CCC(=O)NC2=O)C3=O)CC1 (centres unmarked) [Compound 20] | – | – | > 90 |
| Cc1cc(Nc2ncc(Cl)c(Nc3ccccc3S(=O)(=O)C(C)C)n2)c(OC(C)C)cc1C1CCN(CCOCCOc2cccc3c2C(=O)N(C2CCC(=O)NC2=O)C3=O)CC1 (centres unmarked) [Compound 21] | – | – | 50 to 90 |
| Cc1cc(Nc2ncc(Cl)c(Nc3ccccc3S(=O)(=O)C(C)C)n2)c(OC(C)C)cc1C1CCN(CCCCCOc2cccc3c2C(=O)N(C2CCC(=O)NC2=O)C3=O)CC1 (centres unmarked) [Compound 22] | – | – | 50 to 90 |
| Cc1cc(Nc2ncc(Cl)c(Nc3ccccc3S(=O)(=O)C(C)C)n2)c(OC(C)C)cc1C1CCN(CCCCOc2cccc3c2C(=O)N(C2CCC(=O)NC2=O)C3=O)CC1 (centres unmarked) [Compound 23] | – | – | 50 to 90 |
| Cc1cc(Nc2ncc(Cl)c(Nc3ccccc3S(=O)(=O)C(C)C)n2)c(OC(C)C)cc1C1CCN(CCCOc2cccc3c2C(=O)N(C2CCC(=O)NC2=O)C3=O)CC1 (centres unmarked) [Compound 24] | – | – | 50 to 90 |
| Cc1cc(Nc2ncc(Cl)c(Nc3ccccc3S(=O)(=O)C(C)C)n2)c(OC(C)C)cc1C1CCN(CCOCCOCCOCCOCCOc2cccc3c2C(=O)N(C2CCC(=O)NC2=O)C3=O)CC1 (centres unmarked) [Compound 25] | – | – | > 90 |
| Cc1cc(Nc2ncc(Cl)c(Nc3ccccc3S(=O)(=O)C(C)C)n2)c(OC(C)C)cc1C1CCN(CCOCCOCCOCCOCCOCCOc2cccc3c2C(=O)N(C2CCC(=O)NC2=O)C3=O)CC1 (centres unmarked) [Compound 26] | – | – | 50 to 90 |
| Cc1cc(Nc2ncc(Cl)c(Nc3ccccc3S(=O)(=O)C(C)C)n2)c(OC(C)C)cc1C1CCN(CCOCCNc2cccc3c2C(=O)N(C2CCC(=O)NC2=O)C3=O)CC1 (centres unmarked) [Compound 27] | – | – | > 90 |

| Structure (SMILES) | inhibition at 0.1 µM (ALK kinase [1]) [%] | inhibition at 100 µM (SU-DHL-1 cells) [%] | inhibition at 1 µM (ALK kinase [2]) [%] |
| --- | --- | --- | --- |
| Cc1cc(Nc2ncc(Cl)c(Nc3ccccc3S(=O)(=O)C(C)C)n2)c(OC(C)C)cc1C1CCN(CCCCCNc2cccc3c2C(=O)N(C2CCC(=O)NC2=O)C3=O)CC1 (centres unmarked) [Compound 28] | – | – | > 90 |
| Cc1cc(Nc2ncc(Cl)c(Nc3ccccc3S(=O)(=O)C(C)C)n2)c(OC(C)C)cc1C1CCN(CCCCNc2cccc3c2C(=O)N(C2CCC(=O)NC2=O)C3=O)CC1 (centres unmarked) [Compound 29] | – | – | 50 to 90 |
| Cc1cc(Nc2ncc(Cl)c(Nc3ccccc3S(=O)(=O)C(C)C)n2)c(OC(C)C)cc1C1CCN(CCCNc2cccc3c2C(=O)N(C2CCC(=O)NC2=O)C3=O)CC1 (centres unmarked) [Compound 30] | – | – | 50 to 90 |
| Cc1cc(Nc2ncc(Cl)c(Nc3ccccc3S(=O)(=O)C(C)C)n2)c(OC(C)C)cc1C1CCN(CCOCCOCCOCCOCCNc2cccc3c2C(=O)N(C2CCC(=O)NC2=O)C3=O)CC1 (centres unmarked) [Compound 31] | – | – | > 90 |
| Cc1cc(Nc2ncc(Cl)c(Nc3ccccc3S(=O)(=O)C(C)C)n2)c(OC(C)C)cc1C1CCN(CCOCCOCCOCCOCCOCCNc2cccc3c2C(=O)N(C2CCC(=O)NC2=O)C3=O)CC1 (centres unmarked) [Compound 32] | – | – | 50 to 90 |
| Cc1cc(Nc2ncc(Cl)c(Nc3ccccc3S(=O)(=O)C(C)C)n2)c(OC(C)C)cc1C1CCN(CC(=O)NCCNc2cccc3c2C(=O)N(C2CCC(=O)NC2=O)C3=O)CC1 (centres unmarked) [Compound 33] | – | – | > 90 |
| Cc1cc(Nc2ncc(Cl)c(Nc3ccccc3S(=O)(=O)C(C)C)n2)c(OC(C)C)cc1C1CCN(CC(=O)NCCOCCOCCNc2cccc3c2C(=O)N(C2CCC(=O)NC2=O)C3=O)CC1 (centres unmarked) [Compound 35] | – | – | > 90 |
| Cc1cc(Nc2ncc(Cl)c(Nc3ccccc3S(=O)(=O)C(C)C)n2)c(OC(C)C)cc1C1CCN(CC(=O)NCCOCCOCCOCCNc2cccc3c2C(=O)N(C2CCC(=O)NC2=O)C3=O)CC1 (centres unmarked) [Compound 36] | – | – | > 90 |
| Cc1cc(Nc2ncc(Cl)c(Nc3ccccc3S(=O)(=O)C(C)C)n2)c(OC(C)C)cc1C1CCN(CC(=O)NCCOCCOCCOCCOCCNc2cccc3c2C(=O)N(C2CCC(=O)NC2=O)C3=O)CC1 (centres unmarked) [Compound 37] | – | – | 50 to 90 |
| Cc1cc(Nc2ncc(Cl)c(Nc3ccccc3S(=O)(=O)C(C)C)n2)c(OC(C)C)cc1C1CCN(CC(=O)NCCOCCOCCOCCOCCOCCNc2cccc3c2C(=O)N(C2CCC(=O)NC2=O)C3=O)CC1 (centres unmarked) [Compound 38] | – | – | 50 to 90 |
| Cc1cc(Nc2ncc(Cl)c(Nc3ccccc3S(=O)(=O)C(C)C)n2)c(OC(C)C)cc1C1CCN(CC(=O)NCCOc2cccc3c2C(=O)N(C2CCC(=O)NC2=O)C3=O)CC1 (centres unmarked) [Compound 39] | – | – | > 90 |
| Cc1cc(Nc2ncc(Cl)c(Nc3ccccc3S(=O)(=O)C(C)C)n2)c(OC(C)C)cc1C1CCN(CC(=O)NCCOCCOc2cccc3c2C(=O)N(C2CCC(=O)NC2=O)C3=O)CC1 (centres unmarked) [Compound 40] | – | – | > 90 |
| Cc1cc(Nc2ncc(Cl)c(Nc3ccccc3S(=O)(=O)C(C)C)n2)c(OC(C)C)cc1C1CCN(CC(=O)NCCOCCOCCOc2cccc3c2C(=O)N(C2CCC(=O)NC2=O)C3=O)CC1 (centres unmarked) [Compound 41] | – | – | > 90 |
| Cc1cc(Nc2ncc(Cl)c(Nc3ccccc3S(=O)(=O)C(C)C)n2)c(OC(C)C)cc1C1CCN(CC(=O)NCCOCCOCCOCCOc2cccc3c2C(=O)N(C2CCC(=O)NC2=O)C3=O)CC1 (centres unmarked) [Compound 42] | – | – | > 90 |
| Cc1cc(Nc2ncc(Cl)c(Nc3ccccc3S(=O)(=O)C(C)C)n2)c(OC(C)C)cc1C1CCN(CC(=O)NCCOCCOCCOCCOCCOc2cccc3c2C(=O)N(C2CCC(=O)NC2=O)C3=O)CC1 (centres unmarked) [Compound 43] | – | – | 50 to 90 |
| Cc1cc(Nc2ncc(Cl)c(Nc3ccccc3S(=O)(=O)C(C)C)n2)c(OC(C)C)cc1C1CCN(CC(=O)NCCOCCOCCOCCOCCOCCOc2cccc3c2C(=O)N(C2CCC(=O)NC2=O)C3=O)CC1 (centres unmarked) [Compound 44] | – | – | 50 to 90 |
| Cc1cc(Nc2ncc(Cl)c(Nc3ccccc3S(=O)(=O)C(C)C)n2)c(OC(C)C)cc1C1CCN(CCOCCOCCNc2cccc3c2C(=O)N(C2CCC(=O)NC2=O)C3=O)CC1 (centres unmarked) [Compound 45] | 98 | 97 | > 90 |
